Assay [1] addresses T1, cytoplasmic domain of the human CSF-1R (Homo sapiens, UniProt P07333).
T1 construct: Recombinant protein corresponding to the cytoplasmic domain of the human CSF-1R; purchased Invitrogen Corporation, Carlsbad, Calif; PV3249
T1 sequence (P07333 539-972 limits assumed): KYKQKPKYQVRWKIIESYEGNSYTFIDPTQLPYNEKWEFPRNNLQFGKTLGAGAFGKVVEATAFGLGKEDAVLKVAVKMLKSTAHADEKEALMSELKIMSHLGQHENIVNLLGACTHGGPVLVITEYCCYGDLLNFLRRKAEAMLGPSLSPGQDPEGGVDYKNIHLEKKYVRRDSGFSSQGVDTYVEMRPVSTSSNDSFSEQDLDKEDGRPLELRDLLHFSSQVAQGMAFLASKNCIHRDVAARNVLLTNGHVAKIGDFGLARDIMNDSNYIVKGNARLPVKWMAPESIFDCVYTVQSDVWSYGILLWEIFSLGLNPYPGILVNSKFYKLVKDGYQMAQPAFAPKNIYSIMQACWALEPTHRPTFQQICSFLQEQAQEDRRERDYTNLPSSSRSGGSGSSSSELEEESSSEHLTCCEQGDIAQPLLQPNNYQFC
The assay can be described thus: In vitro kinase assay for colony stimulating factor-1 receptor (AlphaScreen). In kind it is biochemical. As to conditions: read-out: CSF-1R percent inhibition. The method, boiled down:
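Tyrosine phosphorylation of a peptide substrate by 4 nM recombinant cytoplasmic-domain enzyme is measured at 1 μM ATP in Mn2+/Mg2+-containing Hepes buffer, pH 7.5. Detection uses PT66 AlphaScreen beads after overnight incubation.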

The next assay addresses T2, kinase domain of cKIT (Homo sapiens, UniProt P10721).
T2 construct: The kinase domain of cKIT was assayed in 50 mM Hepes; purchased Upstate 14-559
The assay is described as follows: Inhibition of cKIT kinase signaling in an in vitro biochemical assay (alphascreen). To be noted: read-out: cKit percent inhibition.

Assay [2] has as its system MNFS60 (murine AML cells). The assay is described as follows: Cell viability assay in MCSF dependent MNFS60 cells (Cell Titer Glo). The format is cell-based. As to conditions: Mus musculus, tested at about 1 μM, read-out: M-NFS-60 CP percent inhibition. How it is done:
Cell viability was assessed by Cell Titer Glo, Promega. […] Test compounds were serially diluted (3 fold) in DMSO to 500× the final concentration. […] Final concentration of MCSF is 10 ng/ml. Cells were incubated for 72 hrs at 37° C., 5% CO2. After the incubation 100 μl Cell Titer Glo is added to each well to determine viable cells. The assay was performed according to the manufacturer's instruction (Promega Corporation, Madison, Wis. USA). Each experimental condition was performed in triplicate. Raw data was imported in Abase and EC50s calculated with XL-fit data analysis software.

A further assay addresses T3, kinase domain of PDGFRβ (Homo sapiens, UniProt P09619).
T3 construct: The kinase domain of PDGFRβ was assayed in 50 mM Hepes; purchased Invitrogen P3082
The assay is described as follows: Inhibition of PDGFRb kinase signaling in an in vitro biochemical assay (alphascreen). To be noted: read-out: PDGFRβ percent inhibition.

The mark [3] stands for this setting: tested at about 1 μM, compounds of Table 3.

Results on 20 molecules are retold here after patent US8173689B2 (Novartis AG, priority 2006, dated 2012).

The structures appear in SMILES notation. Read-outs that look alike come from different tables or passages of the source.

T3 sequence (P09619 600-962 limits assumed): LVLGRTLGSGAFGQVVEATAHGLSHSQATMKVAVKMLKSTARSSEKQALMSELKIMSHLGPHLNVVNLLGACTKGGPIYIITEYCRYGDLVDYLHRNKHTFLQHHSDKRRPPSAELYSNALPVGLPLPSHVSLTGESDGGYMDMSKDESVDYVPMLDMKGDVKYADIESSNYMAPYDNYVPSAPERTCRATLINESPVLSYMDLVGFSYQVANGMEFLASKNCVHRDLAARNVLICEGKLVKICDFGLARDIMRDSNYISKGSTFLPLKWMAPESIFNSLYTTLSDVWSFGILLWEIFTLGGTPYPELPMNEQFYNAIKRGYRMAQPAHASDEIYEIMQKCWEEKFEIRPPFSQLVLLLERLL
T2 sequence (P10721 589-937 limits assumed): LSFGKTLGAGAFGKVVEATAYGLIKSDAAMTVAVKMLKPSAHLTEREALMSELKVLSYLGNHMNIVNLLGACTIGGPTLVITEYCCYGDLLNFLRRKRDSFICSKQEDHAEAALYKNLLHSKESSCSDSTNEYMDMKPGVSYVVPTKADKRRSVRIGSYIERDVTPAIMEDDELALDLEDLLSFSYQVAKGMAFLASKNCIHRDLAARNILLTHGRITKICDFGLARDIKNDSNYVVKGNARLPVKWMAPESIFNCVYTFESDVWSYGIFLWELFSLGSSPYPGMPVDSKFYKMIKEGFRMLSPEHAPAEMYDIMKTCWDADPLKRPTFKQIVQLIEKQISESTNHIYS

For `CNC(=O)c1cc(Oc2ccc3nc(NCc4c(Cl)cccc4OC)oc3c2)ccn1` [Compound 121, 4-[2-(2-Chloro-6-methoxy-benzylamino)-benzooxazol-6-yloxy]-pyridine-2-carboxylic acid methylamide], the inhibition at 1 µM was determined as 100% in assay [1] (tested at about 1 μM), 9% on kinase domain of cKIT (tested at about 1 μM), 17% in assay [2] (MNFS60 cells) and 30% at kinase domain of PDGFRβ (tested at about 1 μM).

As for `C[C@H](Nc1nc2ccc(Oc3ccnc(C(=O)NN(C)C)c3)cc2s1)C1CCCCC1` [Example 289, (S)-4-(2-(1-cyclohexylethylamino)benzo[d]thiazol-6-yloxy)-N',N'-dimethylpicolinohydrazide], the inhibition at 1 µM in assay [1] (setting [3]) was 99%; at kinase domain of cKIT (setting [3]) it was 28%; in assay [2] (compounds of Table 3), 0%; on kinase domain of PDGFRβ (setting [3]) it was 2%.

Consider `CNC(=O)c1cc(Oc2ccc3nc(N[C@H](C)C(C)C)sc3c2)ccn1` [Compound 149], for which the inhibition at 1 µM in assay [1] (setting [3]) was found to be 100%; on kinase domain of cKIT (setting [3]), 29%; in assay [2] (compounds of Table 3), 48%; on kinase domain of PDGFRβ (setting [3]) it was 21%.

`Cn1cc(-c2cc(Oc3ccc4nc(N[C@H](CO)Cc5ccccc5)sc4c3)ccn2)cn1` [Example 351, (S)-2-(6-(2-(1-methyl-1H-pyrazol-4-yl)pyridin-4-yloxy)benzo[d]thiazol-2-ylamino)-3-phenylpropan-1-ol]: the inhibition at 1 µM in assay [1] (tested at about 1 μM) was determined as 100%; on kinase domain of cKIT (tested at about 1 μM) it was 98%; in assay [2] (MCSF dependent MNFS60 cells) it was 100%; on kinase domain of PDGFRβ (tested at about 1 μM), 79%.

Turning to `FC(F)(F)Oc1ccc2c(Oc3ccc4nc(NCC5CCCCC5)sc4c3)ccnc2c1` [Example 228, N-(cyclohexylmethyl)-6-(7-(trifluoromethoxy)quinolin-4-yloxy)benzo[d]thiazol-2-amine], the inhibition at 1 µM in assay [1] (setting [3]) was determined as 100%; on kinase domain of cKIT (setting [3]), 70%; in assay [2] (compounds of Table 3), 32%; at kinase domain of PDGFRβ (setting [3]) it was 26%.

In the case of `CNC(=O)c1cc(Oc2ccc3nc(N[C@H]4CCCC[C@H]4NS(C)(=O)=O)sc3c2)ccn1` [Example 300, N-methyl-4-(2-((1S,2R)-2-(methylsulfonylamido)cyclo-hexylamino)benzo[d]thiazol-6-yloxy)picolinamide], the inhibition at 1 µM in assay [1] (tested at about 1 μM) was 99%; at kinase domain of cKIT (tested at about 1 μM), 2%; in assay [2] (MCSF dependent MNFS60 cells) it was 14%; at kinase domain of PDGFRβ (tested at about 1 μM), 0%.

Consider `O[C@@H]1CCCC[C@H]1Nc1nc2ccc(Oc3ccncc3-c3cn[nH]c3)cc2s1` [Example 188], for which the inhibition at 1 µM in assay [1] turned out to be 100%; at kinase domain of cKIT it was 55%; in assay [2] (compounds of Table 3), 38%; on kinase domain of PDGFRβ, 35%.

Turning to `CN(C)CCNC(=O)c1cc(Oc2ccc3nc(NCC4CCCCC4)sc3c2)ccn1` [Compound 160, 4-(2-(cyclohexylmethyl-amino)benzothiazol-6-yloxy)-N-(2-(dimethylamino)-ethyl)pyridine-2-carboxamide], the inhibition at 1 µM in assay [1] (tested at about 1 μM) is 99%; at kinase domain of cKIT (tested at about 1 μM), 13%; in assay [2] (MNFS60 cells), 30%; on kinase domain of PDGFRβ (tested at about 1 μM) it was 18%.

Consider `O[C@@H]1CCCC[C@H]1Nc1nc2ccc(Oc3ccncc3-c3cccnc3)cc2s1` [Example 190], for which the inhibition at 1 µM was 98% in assay [1] (setting [3]), 22% at kinase domain of cKIT (setting [3]), 5% in assay [2] (compounds of Table 3) and 19% on kinase domain of PDGFRβ (setting [3]).

In the case of `CNC(=O)c1cc(Oc2ccc3nc(NCc4cc(OC)ccc4F)oc3c2)ccn1` [Compound 73, 4-[2-(2-Fluoro-5-methoxy-benzylamino)-benzooxazol-6-yloxy]-pyridine-2-carboxylic acid methylamide], the inhibition at 1 µM in assay [1] (tested at about 1 μM) stood at 100%; at kinase domain of cKIT (tested at about 1 μM) it was 21%; in assay [2] (MNFS60 cells), 0%; on kinase domain of PDGFRβ (tested at about 1 μM) it was 2%.

Consider `OC[C@H](Cc1ccccc1)Nc1nc2ccc(Oc3ccnc4ccccc34)cc2s1` [Example 242], for which the inhibition at 1 µM in assay [1] (setting [3]) is 100%; on kinase domain of cKIT (setting [3]), 97%; in assay [2] (compounds of Table 3), 51%; on kinase domain of PDGFRβ (setting [3]), 35%.

As for `Cn1cc(-c2cc(Oc3ccc4nc(NC[C@@H](O)c5ccccc5)sc4c3)ccn2)cn1` [Example 357, (S)-2-(6-(2-(1-methyl-1H-pyrazol-4-yl)pyridin-4-yloxy)benzo[d]thiazol-2-ylamino)-1-phenylethanol], the inhibition at 1 µM came to 100% in assay [1] (tested at about 1 μM), 91% on kinase domain of cKIT (tested at about 1 μM), 100% in assay [2] (MCSF dependent MNFS60 cells) and 44% on kinase domain of PDGFRβ (tested at about 1 μM).

Consider `CC(C)C[C@@H](CO)Nc1nc2ccc(Oc3ccnc(-c4cnn(C)c4)c3)cc2s1` [Example 358, (S)-4-methyl-2-(6-(2-(1-methyl-1H-pyrazol-4-yl)pyridin-4-yloxy)benzo[d]thiazol-2-ylamino)pentan-1-ol], for which the inhibition at 1 µM in assay [1] (tested at about 1 μM) came out at 100%; at kinase domain of cKIT (tested at about 1 μM), 100%; in assay [2] (MCSF dependent MNFS60 cells), 100%; at kinase domain of PDGFRβ (tested at about 1 μM) it was 99%.

Consider `CNC(=O)c1cc(Oc2ccc3nc(NCC4COc5ccccc5O4)oc3c2)ccn1` (centres unmarked) [Compound 119, 4-{2-[(2,3-Dihydro-benzo-[1,4]dioxin-2-ylmethyl)-amino]-benzooxazol-6-yloxy}-pyridine-2-carboxylic acid methylamide], for which the inhibition at 1 µM in assay [1] (tested at about 1 μM) is 99%; at kinase domain of cKIT (tested at about 1 μM), 18%; in assay [2] (MNFS60 cells), 13%; on kinase domain of PDGFRβ (tested at about 1 μM), 32%.

For the molecule `CNC(=O)c1cc(Oc2ccc3nc(NCC4CCCN(C(C)=O)C4)sc3c2)ccn1` (centres unmarked) [Example 306, 4-(2-((1-acetylpiperidin-3-yl)methylamino)benzo[d]thiazol-6-yloxy)-N-methylpicolinamide], the inhibition at 1 µM is 99% in assay [1] (tested at about 1 μM), 6% at kinase domain of cKIT (tested at about 1 μM), 48% in assay [2] (MCSF dependent MNFS60 cells) and 0% on kinase domain of PDGFRβ (tested at about 1 μM).

Consider `O[C@@H]1CCCC[C@H]1Nc1nc2ccc(Oc3ccnc(-c4cncnc4)c3)cc2s1` [Example 285, (1R,2R)-2-(6-(2-(pyrimidin-5-yl)pyridin-4-yloxy)benzo[d]thiazol-2-ylamino)cyclohexanol], for which the inhibition at 1 µM in assay [1] (setting [3]) was found to be 99%; on kinase domain of cKIT (setting [3]), 33%; in assay [2] (compounds of Table 3), 0%; at kinase domain of PDGFRβ (setting [3]), 8%.

Take `COCCNC(=O)c1cc(Oc2ccc3nc(NCC4CCCCC4)sc3c2)ccn1` [Compound 159, 4-(2-(cyclohexylmethyl-amino)benzothiazol-6-yloxy)-N-(2-methox.ylethyl)-pyridine-2-carboxamide]: the inhibition at 1 µM in assay [1] (tested at about 1 μM) came to 99%; on kinase domain of cKIT (tested at about 1 μM) it was 12%; in assay [2] (MNFS60 cells) it was 17%; at kinase domain of PDGFRβ (tested at about 1 μM), 1%.

Take `C[C@@H](Nc1nc2ccc(Oc3ccnc(-c4cnn(C)c4)c3)cc2s1)C1CCCCC1` [Example 354, (R)-N-(1-cyclohexylethyl)-6-(2-(1-methyl-1H-pyrazol-4-yl)pyridin-4-yloxy)benzo[d]thiazol-2-amine]: the inhibition at 1 µM was 100% in assay [1] (tested at about 1 μM), 100% at kinase domain of cKIT (tested at about 1 μM), 100% in assay [2] (MCSF dependent MNFS60 cells) and 98% at kinase domain of PDGFRβ (tested at about 1 μM).

Consider `CNc1cc(Oc2ccc3nc(NCC4CCCCC4)sc3c2)ccn1` [Example 338, N-(cyclohexylmethyl)-6-(2-(methylamino)pyridin-4-yloxy)benzo[d]thiazol-2-amine], for which the inhibition at 1 µM in assay [1] (tested at about 1 μM) was found to be 100%; at kinase domain of cKIT (tested at about 1 μM) it was 51%; in assay [2] (MCSF dependent MNFS60 cells), 44%; at kinase domain of PDGFRβ (tested at about 1 μM), 52%.

Regarding `OC[C@H](CC1CCCCC1)Nc1nc2ccc(Oc3ccnc4ccccc34)cc2s1` [Example 250], the inhibition at 1 µM in assay [1] (setting [3]) came to 97%; on kinase domain of cKIT (setting [3]), 98%; in assay [2] (compounds of Table 3) it was 20%; on kinase domain of PDGFRβ (setting [3]), 0%.
